Source: patent US7268157B2, “Substituted arylalcanoic acid derivatives as PPAR pan agonists with potent antihyperglycemic and antihyperlipidemic activity” (Shenzhen Chipscreen Biosciences, Ltd., priority 2002, dated 2007)

Tests used:
[1] = tested on: obese rat; assay: Blood triglyceride and cholesterol in experimental obese rats; assay type: in vivo; conditions: 13-day treatment
[2] = Body weight and abdomen fat weight in experimental obese rats; assay type: in vivo, rat; conditions: for Abdomen Fat Weight: 15-day treatment

SMILES | Cholesterol ([1]; 4 mg/kg) [mg/dL] | Triglyceride ([1]; 4 mg/kg) [mg/dL] | Cholesterol ([1]; 30 mg/kg) [mg/dL] | Triglyceride ([1]; 30 mg/kg) [mg/dL] | Body Weight ([2]; 4 mg/kg, 0 day) [g] | Abdomen Fat Weight ([2]; 4 mg/kg) [g] | Body Weight ([2]; 4 mg/kg, 6 days) [g] | Body Weight ([2]; 4 mg/kg, 9 days) [g] | Body Weight ([2]; 4 mg/kg, 15 days) [g] | Body Weight ([2]; 30 mg/kg, 0 day) [g] | Abdomen Fat Weight ([2]; 30 mg/kg) [g] | Body Weight ([2]; 30 mg/kg, 6 days) [g] | Body Weight ([2]; 30 mg/kg, 9 days) [g] | Body Weight ([2]; 30 mg/kg, 15 days) [g] | body weight and abdomen fat increases ([2]; after 15-day drug treatment)
O=C(c1ccc(F)cc1)c1ccccc1NC(Cc1ccc(OCCn2c3ccccc3c3ccccc32)cc1)C(=O)O (stereo not shown) [CS-038, 2-[(2-(4-fluorobenzoyl)phenyl)amino]-3-[4-(2-carbazolylethoxy)-phenyl]-propionic acid] | 98.4 ± 29.4 | 150.3 ± 52.1 | 86.6 ± 37.7 | 143.2 ± 61.8 | 591.5 ± 130.0 | 55.8 ± 16.8 | 580.8 ± 130.2 | 575.2 ± 130.6 | 569.4 ± 122.9 | 580.5 ± 134.9 | 56.6 ± 21.1 | 586.1 ± 143.2 | 586.5 ± 144.2 | 578.3 ± 176.8 | does not induce body weight and abdomen fat increases
CN(CCOc1ccc(CC2SC(=O)NC2=O)cc1)c1ccccn1 (stereo not shown) [Rosiglitazone, reference compound] | 112.7 ± 25.5 | 273.3 ± 87.4 | – | – | 594.9 ± 169.3 | 63.1 ± 31.4 | 604.5 ± 181.4 | 601.6 ± 183.9 | 596.4 ± 176.8 | – | – | – | – | – | –
